Data reported in article doi:10.1101/2024.09.05.611349v1 (biorxiv, 2024).
Converted amounts (≈) assume the structure as drawn.

How the values were obtained:
in vitro [1] = details: mouse, liver microsomes
[2] = tested on: Staphylococcus epidermidis MSSE 15-61; assay: microbe, parasite or virus in culture; set-up: species or system gram-positive clinical isolates; details: Staphylococcus epidermidis, MSSE1561, read-out: MIC(μg/ml) / 1b
[3] = tested on: Staphylococcus epidermidis MSSE 15-58; assay: microbe, parasite or virus in culture; set-up: species or system gram-positive clinical isolates; details: Staphylococcus epidermidis, MSSE1558, read-out: MIC(μg/ml) / 1b
[4] = tested on: Staphylococcus epidermidis MSSE 15-59; assay: microbe, parasite or virus in culture; set-up: species or system gram-positive clinical isolates; details: Staphylococcus epidermidis, MSSE1559, read-out: MIC(μg/ml) / 1b
[5] = tested on: Staphylococcus epidermidis MSSE 15-1; assay: microbe, parasite or virus in culture; set-up: species or system gram-positive clinical isolates; details: Staphylococcus epidermidis, MSSE151, read-out: MIC(μg/ml) / 1b
[6] = tested on: Staphylococcus epidermidis MSSE 15-64; assay: microbe, parasite or virus in culture; set-up: species or system gram-positive clinical isolates; details: Staphylococcus epidermidis, MSSE1564, read-out: MIC(μg/ml) / 1b
[7] = tested on: Staphylococcus epidermidis MSSE 15-4; assay: microbe, parasite or virus in culture; set-up: species or system gram-positive clinical isolates; details: Staphylococcus epidermidis, MSSE154, read-out: MIC(μg/ml) / 1b
in vitro [8] = details: Mouse plasma
in vitro [9] = details: Mouse liver microsomes

Compound: CCCCCOc1ccc(C(=O)NNC(=S)NC(C)=O)cc1 [1b, N-(2-(4-(n-pentoxy)benzoyl)hydrazine-1-carbonothioyl)acetamide]
- microsomal CLint (in vitro [1]): 49 µL/min/mg
- MIC [2]: 1 µg/mL (≈ 3.09 µM)
- MIC [3]: 1 µg/mL (≈ 3.09 µM)
- MIC [4]: 1 µg/mL (≈ 3.09 µM)
- MIC [5]: 1 µg/mL (≈ 3.09 µM)
- MIC [6]: 8 µg/mL (≈ 24.7 µM)
- MIC [7]: 1 µg/mL (≈ 3.09 µM)
- Mouse plasma T1/2 (in vitro [8]): >2 h
- Mouse liver microsomes T1/2 (in vitro [9]): 0.472 h
